Experimental data taken from article PMC3049928 (Archives of biochemistry and biophysics, 2010).

Target: SULT1A1 (human phenol sulfotransferase, human sulfotransferase 1A1) (Homo sapiens, UniProt P50225)
Assay: pNPS assay of PAP sulfation, p-nitrophenol absorbance at […] nm
Type: biochemical

SULT1A1 (human phenol sulfotransferase, human sulfotransferase 1A1), sequence (P50225 whole entry): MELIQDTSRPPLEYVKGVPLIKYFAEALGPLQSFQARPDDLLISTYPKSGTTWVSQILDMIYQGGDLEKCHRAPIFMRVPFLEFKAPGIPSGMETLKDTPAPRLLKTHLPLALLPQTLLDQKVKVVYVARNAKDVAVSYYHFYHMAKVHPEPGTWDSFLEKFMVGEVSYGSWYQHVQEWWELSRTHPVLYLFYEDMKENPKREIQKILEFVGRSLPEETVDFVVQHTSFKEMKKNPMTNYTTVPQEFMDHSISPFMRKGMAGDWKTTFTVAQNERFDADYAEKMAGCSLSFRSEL

Ki: 2.6 ± 0.2 µM
SMILES: Oc1ccc2ccccc2c1 [2-naphthol]
